We go through 19 molecules from patent publication US20250188057A1, “NON-AROMATIC CYCLIC-PYRIMIDINE ANALOGS AS GLUCOSYLCERAMIDE SYNTHASE INHIBITORS” (Merck Sharp & Dohme LLC, priority 2022, published 2025).

Sequence of glucosylceramide synthase (GCS) (Q16739 whole entry): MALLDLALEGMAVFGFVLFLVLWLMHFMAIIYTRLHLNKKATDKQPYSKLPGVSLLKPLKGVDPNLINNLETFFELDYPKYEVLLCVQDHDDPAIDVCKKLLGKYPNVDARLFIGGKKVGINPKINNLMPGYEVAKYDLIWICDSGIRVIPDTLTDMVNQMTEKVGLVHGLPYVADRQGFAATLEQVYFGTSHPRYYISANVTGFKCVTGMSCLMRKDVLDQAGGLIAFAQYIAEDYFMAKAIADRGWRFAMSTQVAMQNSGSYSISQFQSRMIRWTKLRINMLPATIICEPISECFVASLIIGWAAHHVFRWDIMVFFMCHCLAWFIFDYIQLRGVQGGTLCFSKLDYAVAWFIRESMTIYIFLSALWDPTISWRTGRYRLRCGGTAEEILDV

One assay concerns the target glucosylceramide synthase (GCS) (Homo sapiens (Human), UniProt Q16739). As to the kind of experiment: UDP-Glo glucosylceramide synthase biochemical assay. The settings on record: endogenous GCS in Golgi preparations isolated from human A375 malignant melanoma skin cells; UDP detection by luminescence. The essentials:
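Endogenous GCS in A375 Golgi preparations (1.5 μg total protein) was preincubated with compound for 30 min at RT, then reacted with UDP-glucose and ceramide for 20 h at RT. UDP was detected by luciferase luminescence, normalized to DMSO and reference-inhibitor controls, with EC50 and % Emax from a 4PL fit.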
One may read the IC50 as the concentration that gives 50% inhibition. `N#Cc1cnc(C2CC2)nc1OC[C@H]1CCN(c2cc(F)ncc2Cl)C1` [Compound 36, (S)-4-((1-(5-chloro-2-fluoropyridin-4-yl)pyrrolidin-3-yl)methoxy)-2-cyclopropylpyrimidine-5-carbonitrile] displayed an IC50 of 2570 nM.

As for `CN(C[C@H]1CCN(c2ccc(-n3cccn3)nc2)C1)c1nc(C2CC2)ncc1C#N` [Compound 49, (S)-4-(((1-(6-(1H-pyrazol-1-yl)pyridin-3-yl)pyrrolidin-3-yl)methyl)(methyl)amino)-2-cyclopropylpyrimidine-5-carbonitrile], the half-maximal inhibitory concentration (IC50) is 1870 nM.

`Cc1cc(N2CC[C@H](COc3nc(C4CC4)ncc3C#N)C2)ncc1F` [Compound 30, (S)-2-cyclopropyl-4-((1-(5-fluoro-4-methylpyridin-2-yl)pyrrolidin-3-yl)methoxy)pyrimidine-5-carbonitrile] gave an IC50 of 1240 nM. This IC50 is about 1.5-fold lower than that of the molecule before.

In turn, `COc1cccc(N2CC[C@H](COc3nc(C4CC4)ncc3C#N)C2)n1` [Compound 12, (S)-2-cyclopropyl-4-((1-(6-methoxypyridin-2-yl)pyrrolidin-3-yl)methoxy)pyrimidine-5-carbonitrile] yielded an IC50 of 529 nM.

Regarding `COc1ccc(N2CCC(Oc3nc(C4CC4)ncc3C#N)C2)cc1` (stereo not shown) [Compound 105, 2-cyclopropyl-4-((1-(4-methoxyphenyl)pyrrolidin-3-yl)oxy)pyrimidine-5-carbonitrile], the half-maximal inhibitory concentration (IC50) stood at 321 nM.

`Cc1nc2c(s1)CCCC2Nc1nc(C2CC2)nc(Cl)c1C(F)F` (stereo not shown) [Compound 123, N-(6-chloro-2-cyclopropyl-5-(difluoromethyl)pyrimidin-4-yl)-2-methyl-4,5,6,7-tetrahydrobenzo[d]thiazol-4-amine] gave an IC50 of 841 nM.

Turning to `CC(F)(F)c1ccnc(N2CC[C@H](COc3nc(C4CC4)ncc3C#N)C2)c1` [Compound 32, (S)-2-cyclopropyl-4-((1-(4-(1,1-difluoroethyl)pyridin-2-yl)pyrrolidin-3-yl)methoxy)pyrimidine-5-carbonitrile], the half-inhibitory concentration (IC50) was determined as 3290 nM.

In turn, `N#Cc1ccccc1C1CCN(c2nc(C3CC3)ncc2C#N)C1` (stereo not shown) [Compound 87, 4-(3-(2-cyanophenyl)pyrrolidin-1-yl)-2-cyclopropylpyrimidine-5-carbonitrile] showed an IC50 of 218 nM.

With `N#Cc1cnc(C2CC2)nc1OC[C@H]1CCN(c2ccc(-n3cccn3)cc2)C1` [Compound 7, (S)-4-((1-(4-(1H-pyrazol-1-yl)phenyl)pyrrolidin-3-yl)methoxy)-2-cyclopropylpyrimidine-5-carbonitrile], half-maximal inhibition (IC50) required 4.3 nM.

As to `Cc1nc2c(s1)C(Oc1nc(C3CC3)ncc1C#N)CCC2` (stereo not shown) [Compound 126, 2-cyclopropyl-4-((2-methyl-4,5,6,7-tetrahydrobenzo[d]thiazol-7-yl)oxy)pyrimidine-5-carbonitrile], the 50% inhibitory concentration (IC50) was 971 nM.

With `N#Cc1cnc(C2CC2)nc1OC[C@H]1CCN(c2ccnc(OC3CC3)c2)C1` [Compound 47, (S)-4-((1-(2-cyclopropoxypyridin-4-yl)pyrrolidin-3-yl)methoxy)-2-cyclopropylpyrimidine-5-carbonitrile], half-maximal inhibition (IC50) required 3090 nM.

`COc1ccc(N2CCC3(CCN(c4nc(C5CC5)ncc4CO)C3)C2)cc1` (stereo not shown) [Compound 125, (2-cyclopropyl-4-(7-(4-methoxyphenyl)-2,7-diazaspiro[4.4]nonan-2-yl)pyrimidin-5-yl)methanol] had an IC50 of 902 nM.

With `N#Cc1cnc(C2CC2)nc1OC[C@H]1CCN(c2ccc(-c3cnco3)cc2)C1` [Compound 22, (S)-2-cyclopropyl-4-((1-(4-(oxazol-5-yl)phenyl)pyrrolidin-3-yl)methoxy)pyrimidine-5-carbonitrile], the half-inhibitory concentration (IC50) came to 26 nM. Against the preceding molecule, the IC50 is about 35-fold lower.

The molecule `N#Cc1cnc(C2CC2)nc1OC[C@@H]1CCN(c2cc(F)ncc2Cl)C1` [Compound 37, (R)-4-((1-(5-chloro-2-fluoropyridin-4-yl)pyrrolidin-3-yl)methoxy)-2 cyclopropylpyrimidine-5-carbonitrile] returned an IC50 of 3510 nM.

In turn, `COC(=O)C[C@@H]1COc2cc(OC3CN(c4nc(C5CC5)ncc4C#N)C3)ccc21` [Compound 80, methyl (S)-2-(6-((1-(5-cyano-2-cyclopropylpyrimidin-4-yl)azetidin-3-yl)oxy)-2,3-dihydrobenzofuran-3-yl)acetate] gave a 50% inhibitory concentration (IC50) of 303 nM.

As for `N#Cc1cnc(C2CC2)nc1OCC12CC1CN(c1ncc(C(F)(F)F)cn1)C2` (stereo not shown) [Compound 51, 2-cyclopropyl-4-((3-(5-(trifluoromethyl)pyrimidin-2-yl)-3-azabicyclo[3.1.0]hexan-1-yl)methoxy)pyrimidine-5-carbonitrile], the concentration for half-maximal inhibition (IC50) is 90 nM.

The molecule `N#Cc1cnc(C2CC2)nc1OC[C@H]1CCN(c2ccc(C3CC3)nc2)C1` [Compound 24, (S)-2-cyclopropyl-4-((1-(6-cyclopropylpyridin-3-yl)pyrrolidin-3-yl)methoxy)pyrimidine-5-carbonitrile] showed an IC50 of 377 nM.

`Cc1nc2c(s1)CCCC2Nc1nc(C2CC2)nc(C)c1C#N` (stereo not shown) [Compound 124, 2-cyclopropyl-4-methyl-6-((2-methyl-4,5,6,7-tetrahydrobenzo[d]thiazol-4-yl)amino)pyrimidine-5-carbonitrile]: the IC50 is 422 nM.

The test system of another assay is GD and PD patient-derived induced pluripotent stem cell (iPSC) neurons.
Assay: not given
The settings on record: Zunke, F. et al., Neuron 2018; cited from earlier work.
Take `CCCCCCCC(=O)N[C@H](CN1CCCC1)[C@H](O)c1ccc2c(c1)OCCO2` [eliglustat, Eliglustat]: the “formation of pathological α-synuclein aggregates” value was “reverse the formation of pathological α-synuclein aggregates”.
